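These data come from cells grown in 96-well plates and exposed to compound for 48 hours at five concentrations. TGI is the concentration that stops growth completely.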
Columns and labels:
Experiment in all cases: growth of human tumour cells (NCI), 48 h
[1] = test system: ACHN renal
[2] = test system: COLO 205 colon
[3] = test system: HS 578T breast
[4] = test system: HT29 colon
[5] = test system: MALME-3M melanoma
[6] = test system: MDA-MB-231 breast
[7] = test system: NCI-H460 lung
[8] = test system: SF-539 CNS
[9] = test system: SK-MEL-28 melanoma
[10] = test system: TK-10 renal
[11] = test system: UACC-62 melanoma
[12] = test system: UO-31 renal

Measured: TGI

COc1ccc(C2=NNC(=O)c3ccccc3N2c2nc(-c3cccs3)nc3ccc(Br)cc23)cc1
75.9 µM: [5]
39.3 µM: [8]
72.8 µM: [10]
> 100 µM: all other assays above

OC(O)(C(F)(F)F)C(F)(F)F
> 100 µM: all assays above

COC(=O)C[C@H](CCSC)NC(=O)C[C@H](CCSC)NC(=O)C[C@H](CCSC)NC(=O)OC(C)(C)C
54.1 µM: [8]
42.2 µM: [10]
84.3 µM: [11]
> 100 µM: all other assays above

Cc1cccc(C(O)c2cccnc2)c1O (stereo not drawn)
> 100 µM: all assays above

C=C1C(=O)O[C@H]2[C@H]([C@H](C)CCCC(C)=O)O[C@H]([C@@]3(C)CCC(=O)O3)C[C@@H]12
52.3 µM: [10]
54.3 µM: [5]
> 100 µM: all other assays above

CSc1ccccc1P(CCP(c1ccccc1SC)c1ccccc1SC)c1ccccc1SC
> 79.1 µM: [8]
> 90.3 µM: [12]
> 53 µM: [2]
> 80.1 µM: [7]
> 100 µM: all other assays above

COc1ccc(C2NC(=O)Nc3c2c(=O)oc2c3ccc3ccccc32)cc1 (stereo not drawn)
> 100 µM: all assays above

COc1cc2c(cc1O)CC[C@@H]1C2CC[C@@]2(C)C1CC[C@@H]2O (stereo partly drawn)
> 94.1 µM: [10]
> 72.7 µM: [7]
81.3 µM: [2]
64.6 µM: [4]
> 94.7 µM: [12]
> 87.1 µM: [6]
7.63 µM: [3]
4.2 µM: [8]
> 100 µM: all other assays above

c1ccc2c(c1)c1c3n2-c2cc(on2)C3CCC1 (stereo not drawn)
> 100 µM: all assays above

COC(=O)c1c(C#C[Si](C)(C)C)c(C#C[Si](C)(C)C)c(C#C[Si](C)(C)C)c(C#C[Si](C)(C)C)c1C(=O)OC
> 100 µM: all assays above

C=C1C(=O)O[C@H]2C3C(=C(C)CC[C@@H]12)C(=O)[C@@H]1OC31C (stereo partly drawn)
9.8 µM: [3]
2.66 µM: [2]
4.28 µM: [4]
8.07 µM: [1]
6.75 µM: [8]
8.08 µM: [6]
11.1 µM: [12]
5.69 µM: [11]
4.4 µM: [10]
5.52 µM: [9]
4.66 µM: [5]
25.3 µM: [7]

O=C(NCc1cccnc1)C(=O)NCc1cccnc1
> 100 µM: all assays above

COc1cc(-c2[o+]c3cc(O)cc(OC4OC(CO)C(O)C(O)C4O)c3cc2OC2OC(CO)C(O)C(O)C2O)cc(OC)c1O (stereo not drawn)
> 100 µM: all assays above

O=C(C=P(c1ccccc1)(c1ccccc1)c1ccccc1)c1ccc(-c2ccc(F)cc2F)cc1
8.14 µM: [9]
7.17 µM: [5]
10.8 µM: [8]
6.76 µM: [1]
4.08 µM: [12]
3.14 µM: [2]
4.25 µM: [11]
4.09 µM: [7]
4.92 µM: [6]
3.94 µM: [4]
28.3 µM: [3]
7.2 µM: [10]

Reference: PubChem BioAssay (NCI)
